Laboratory results reported in paper PMC12775434, “Ultra-large virtual screening unveils potent agonists of the neuromodulatory orphan receptor GPR139” (Nature Communications, 2025).
Where “and” joins values, the source holds several entries; their conditions need not be identical. Equal entries are not always repeated. Where two headings read alike, the source gives them in different places.

Legend:
Assay type in all cases: cell-based
GPR139 [1] = biological target: T1, GPR139 (Homo sapiens, UniProt Q6DWJ6); experiment: Ca2+ mobilization assay, agonist mode, stable GPR139-CHOk1 cell line; details: for Emax: normalized to Lundbeck Cmp 1a, read-out: Emax (%) Ca2+
T1 sequence (Q6DWJ6 1-353): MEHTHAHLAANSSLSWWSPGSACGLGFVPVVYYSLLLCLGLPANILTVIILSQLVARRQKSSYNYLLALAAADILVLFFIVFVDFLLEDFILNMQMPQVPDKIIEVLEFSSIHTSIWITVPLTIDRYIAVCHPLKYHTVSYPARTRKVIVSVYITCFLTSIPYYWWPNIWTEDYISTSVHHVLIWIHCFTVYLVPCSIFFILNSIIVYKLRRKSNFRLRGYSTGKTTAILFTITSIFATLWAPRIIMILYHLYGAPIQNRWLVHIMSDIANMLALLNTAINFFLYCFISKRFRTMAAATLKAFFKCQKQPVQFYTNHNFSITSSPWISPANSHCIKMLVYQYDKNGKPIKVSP
Summary of the method: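 Agonist activity of compounds is assessed in stably transfected CHO-K1 cells using the calcium dye Fluo-4 at 37 °C in HEPES-buffered HBSS (pH 7.4). Efficacy is expressed relative to the reference agonist Lundbeck Cmp 1a, set as 100%.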

GPR139 [2] = biological target: T1, GPR139; experiment: Ca2+ mobilization assay, antagonist mode (EC80 800 nM Lundbeck Cmp 1a after 20 min preincubation), GPR139-CHOk1; details: individual replicates (Supplementary Figure 4)
Summary of the method: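 Antagonist mode: 800 nM (EC80) reference agonist Lundbeck Cmp 1a added following 20 min pre-incubation with 10 µM compound. GPR139-CHOk1 cells, Fluo-4 dye, probenecid-containing HEPES buffer pH 7.4; intracellular Ca2+ measured at 37 °C (ex 485, em 525 nm).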

[3] = biological target: T2, human muscarinic acetylcholine M1 receptor (M1R) (Homo sapiens, UniProt P11229); experiment: Ca2+ mobilization counter-screen in M1R-CHOk1 cells; details: individual replicates (Supplementary Figure 5);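 note: 10 µM test compound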
T2 sequence (P11229 1-460): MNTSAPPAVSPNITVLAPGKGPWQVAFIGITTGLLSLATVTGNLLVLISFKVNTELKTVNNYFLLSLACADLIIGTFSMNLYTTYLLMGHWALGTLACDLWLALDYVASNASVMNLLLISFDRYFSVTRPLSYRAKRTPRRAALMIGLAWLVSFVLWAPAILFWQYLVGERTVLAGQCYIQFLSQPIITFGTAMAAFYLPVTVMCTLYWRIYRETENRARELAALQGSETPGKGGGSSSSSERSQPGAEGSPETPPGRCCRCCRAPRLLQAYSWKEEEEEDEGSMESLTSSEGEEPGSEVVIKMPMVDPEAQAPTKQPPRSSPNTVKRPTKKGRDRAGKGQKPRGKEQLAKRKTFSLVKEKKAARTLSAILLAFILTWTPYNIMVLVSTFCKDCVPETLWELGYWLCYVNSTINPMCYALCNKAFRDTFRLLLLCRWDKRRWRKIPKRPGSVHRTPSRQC
Summary of the method: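 Fluorescence (ex 485 nm, em 525 nm) recorded at 37 °C after automated compound addition to CHO-K1 cells stably expressing M1R. Cells were dye-loaded with 2 µM Fluo-4 AM for 1 h at 37 °C, with 2.5 mM probenecid present; final DMSO at most 0.3%.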

[4] = Agonist mode, individual replicates (Supplementary Figure 4)
[5] = Supplementary Table 2, mean ± SEM
[6] = log [Compound] M = -4.5, individual replicate columns
[7] = log [Compound] M = -5.0, individual replicate columns
[8] = log [Compound] M = -5.5, individual replicate columns
[9] = log [Compound] M = -6.0, individual replicate columns
[10] = log [Compound] M = -6.5, individual replicate columns
[11] = log [Compound] M = -7.0, individual replicate columns
[12] = log [Compound] M = -7.5, individual replicate columns
[13] = log [Compound] M = -8.0, individual replicate columns
[14] = log [Compound] M = -8.5, individual replicate columns
[15] = log [Compound] M = -9.0, individual replicate columns

fold decrease in potency on substitution of the central oxadiazole ring (GPR139 [1]; Ca2+ mobilization) [fold] | EC50 (GPR139 [1]; GPR139-CHOk1, read-out: EC50, Ca2+ mobilization) [nM] | Emax (GPR139 [1]; [5]) [%] | EC50 (GPR139 [1]; Supplementary Table 2, mean ± SEM, read-out: pEC50 Ca2+ (converted)) [nM] | SMILES | Ca2+ signal (% of Cmp 1a) (GPR139 [1]; [4]) | Ca2+ signal (% of Cmp 1a) (GPR139 [1]; [6]) | Ca2+ signal (% of Cmp 1a) (GPR139 [1]; [7]) | Ca2+ signal (% of Cmp 1a) (GPR139 [1]; [8]) | Ca2+ signal (% of Cmp 1a) (GPR139 [1]; [9]) | Ca2+ signal (% of Cmp 1a) (GPR139 [1]; [10]) | Ca2+ signal (% of Cmp 1a) (GPR139 [1]; [11]) | Ca2+ signal (% of Cmp 1a) (GPR139 [1]; [12]) | Ca2+ signal (% of Cmp 1a) (GPR139 [1]; [13]) | Ca2+ signal (% of Cmp 1a) (GPR139 [1]; [14]) | Ca2+ signal (% of Cmp 1a) (GPR139 [1]; [15]) | Ca2+ signal (% of Cmp 1a) (GPR139 [2]) | Ca2+ signal (% of Carbachol) [3] | change in potency with larger substituents on the thiophene ring (GPR139 [1]; Ca2+ mobilization)
7 | 1300 | 82 ± 7 |  | CC(NC(=O)Cn1cc(-c2cccs2)nn1)c1ccccc1 (centres unmarked) [Compound 1.38, CC(NC(=O)CN1C=C(N=N1)C2=CC=CS2)C=3C=CC=CC3] | 54 % of Cmp 1a and 77 % of Cmp 1a and 68 % of Cmp 1a | 92 % of Cmp 1a (2×) and 78 % of Cmp 1a and 67 % of Cmp 1a | 90 % of Cmp 1a and 69 % of Cmp 1a and 85 % of Cmp 1a and 60 % of Cmp 1a | 88 % of Cmp 1a and 51 % of Cmp 1a and 91 % of Cmp 1a and 56 % of Cmp 1a | 56 % of Cmp 1a and 17 % of Cmp 1a and 49 % of Cmp 1a and 18 % of Cmp 1a | 22 % of Cmp 1a and -6 % of Cmp 1a and 11 % of Cmp 1a and 3.64 % of Cmp 1a | 7.61 % of Cmp 1a and -2.54 % of Cmp 1a and 1.82 % of Cmp 1a and 1.21 % of Cmp 1a | 0.854 % of Cmp 1a and 4 % of Cmp 1a and -4.35 % of Cmp 1a and 9 % of Cmp 1a | -1.25 % of Cmp 1a and 0.0327 % of Cmp 1a and -3 % of Cmp 1a and 1.5 % of Cmp 1a | 1 % of Cmp 1a and 0.912 % of Cmp 1a and 6 % of Cmp 1a and 0.231 % of Cmp 1a | 5.27 % of Cmp 1a and -0.036 % of Cmp 1a and 7.38 % of Cmp 1a and 4.27 % of Cmp 1a | 22 % of Cmp 1a and 19 % of Cmp 1a | 0.152 % of Carbachol and 1.48 % of Carbachol and 2 % of Carbachol | 
 |  | 66 ± 3 | 2510 | CC(=O)c1ccc(-c2nc(CC(=O)NC(C)c3ccccc3)no2)s1 (centres unmarked) [Compound 1.28, CC(C1=CC=CC=C1)NC(CC2=NOC(C3=CC=C(C(C)=O)S3)=N2)=O] | 64 % of Cmp 1a and 62 % of Cmp 1a and 50 % of Cmp 1a | 66 % of Cmp 1a and 68 % of Cmp 1a and 55 % of Cmp 1a and 56 % of Cmp 1a and 59 % of Cmp 1a | 77 % of Cmp 1a and 66 % of Cmp 1a and 55 % of Cmp 1a and 46 % of Cmp 1a and 59 % of Cmp 1a | 54 % of Cmp 1a and 43 % of Cmp 1a and 37 % of Cmp 1a and 21 % of Cmp 1a and 29 % of Cmp 1a | 23 % of Cmp 1a and 21 % of Cmp 1a and 9 % of Cmp 1a and 3.16 % of Cmp 1a and 14 % of Cmp 1a | 6.51 % of Cmp 1a and 1.59 % of Cmp 1a and -12 % of Cmp 1a and -2.27 % of Cmp 1a and -4.37 % of Cmp 1a | -1.28 % of Cmp 1a and 2.34 % of Cmp 1a and -6.44 % of Cmp 1a and 7 % of Cmp 1a and -2 % of Cmp 1a | 0.626 % of Cmp 1a and 6.36 % of Cmp 1a and -9 % of Cmp 1a and -0.267 % of Cmp 1a and 3 % of Cmp 1a | -4.49 % of Cmp 1a and 4.31 % of Cmp 1a and -8 % of Cmp 1a and 1.18 % of Cmp 1a and -3.25 % of Cmp 1a | -6.33 % of Cmp 1a and -0.329 % of Cmp 1a and -3.24 % of Cmp 1a and -1.55 % of Cmp 1a and -1.43 % of Cmp 1a | -6.38 % of Cmp 1a and -2.27 % of Cmp 1a and -10 % of Cmp 1a and -4 % of Cmp 1a and 1.43 % of Cmp 1a | 19 % of Cmp 1a and 58 % of Cmp 1a and 22 % of Cmp 1a | -12 % of Carbachol and -1.79 % of Carbachol and -4.4 % of Carbachol | three-fold reduction to a complete loss of activity
